# Measurements: patent US20240261274A1, “TREATMENT OF MYC-DRIVEN CANCERS WITH GSPT1 DEGRADERS” (MONTE ROSA THERAPEUTICS, INC., priority 2021, published 2024)
# Experiments:
# GSPT1 = GSPT1 (Homo sapiens, UniProt P15170+Q96SW2); experiment: GSPT1 levels in breast cancer tumors after compound 8 (western blotting); assay type: in vivo; set-up: endogenous in cells; details: three consecutive doses at 37 and 75 mpk; tumors harvested 24 hr post third dose; MDA-MB-468, MDA-MB-231, MDA-MB-436, CAL51
# Experimental: Representative examples below show the levels of GSPT1 in MDA-MB-468 (ATCC HTB-132), MDA-MB-231 (ATCC HTB-26), MDA-MB-436 (ATCC HTB-130) and CAL51 (DSMZ-ACC-302) tumors (in lanes from top down as indicated) following three consecutive doses of compound 8 at 37 (right panel) and 75 mpk (middle panel) or administration of vehicle only (left panel). GADPH levels as control is shown in the lowest lane. Tumors were harvested 24 hr post third dose and levels of GSPT1 were determined by western blotting as indicated. Tumors were collected from the in vivo efficacy studies described in the previous FIG. 7A.
# [1] = test system: Human mammary epithelial cells, or HMECs, overexpressing c-Myc in a doxycycline-inducible manner; experiment: Viability of HMECs with doxycycline-inducible c-Myc overexpression; assay type: cell-based; details: for induction of cell death: highest concentration tested 30 μM
# Excerpt: X-axis represents m concentration of compound 8; y-axis represents viability normalized to DMSO.
# [2] = test system: human cell line NCI-H1155 xenograft; experiment: N-Myc-driven mouse xenograft model, NCI-H1155, compound 210 oral; assay type: in vivo
# [3] = test system: NSCLC patient derived xenografts; experiment: Patient derived NSCLC xenograft models (PDX), tumor progression free probability; assay type: in vivo, immunodeficient mice; details: high L-Myc or N-Myc expressing PDX models, oral 10 mg/kg daily, progression >800 mm^3
# Experimental: Patient derived NSCLC xenograft models (PDX) were made using immunodeficient mice. 14 PDXs were made for high L-Myc or N-Myc expressing NSCLC samples and 19 PDXs were made for low L-Myc or N-Myc expressing NSCLC samples. Animals were divided into a treatment group that received an oral dose of 10 mg/kg Compound 345 daily and a vehicle-only control group. […] Data from these experiments are shown in FIG. 14A (high L-Myc or high N-Myc expressing) and FIG. 14B (low L-Myc or low N-Myc expressing). Tumor progression free probability was plotted over time, with a threshold of tumor progression set at greater than 800 mm^3.
# We used log 2FPKM cutoff of 1.5 and 3.4 for N-Myc and L-Myc expression respectively. PDX tumor fragments (2-3 mm in diameter) were inoculated subcutaneously at the upper right dorsal flank of 6-8 weeks old female BALB7c or NODS/CID nude mice. […] Mice were PO dosed with vehicle or Compound 345 at 10 mg/kg daily and tumor volumes recorded at least twice a week. […] For each mouse, we calculated the first day the tumor volume reached 800 mm3 as the endpoint. […] Kaplan-Meier curves were generated in R (ver 4.0.2, survminer package) and log-rank (Mantel-Cox) test P-values were calculated using R (ver 4.0.2, survival package) to assess the differences in survival curves between the Compound 345-treated and vehicle treated samples. […]
# GSPT1, sequence (P15170 whole entry): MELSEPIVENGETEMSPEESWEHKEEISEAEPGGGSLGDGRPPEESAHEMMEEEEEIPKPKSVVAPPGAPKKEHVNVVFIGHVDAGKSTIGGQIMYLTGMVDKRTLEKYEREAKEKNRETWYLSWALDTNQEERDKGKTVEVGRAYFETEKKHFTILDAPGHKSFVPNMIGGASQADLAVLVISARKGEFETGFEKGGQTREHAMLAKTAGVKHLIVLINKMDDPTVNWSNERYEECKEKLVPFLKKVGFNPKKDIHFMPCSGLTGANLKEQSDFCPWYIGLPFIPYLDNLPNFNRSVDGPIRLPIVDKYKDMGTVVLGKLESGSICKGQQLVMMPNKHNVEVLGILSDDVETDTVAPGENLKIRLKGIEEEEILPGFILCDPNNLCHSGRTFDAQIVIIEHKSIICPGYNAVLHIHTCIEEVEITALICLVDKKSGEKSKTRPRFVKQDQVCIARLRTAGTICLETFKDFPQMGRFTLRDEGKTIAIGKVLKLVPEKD
# GSPT1, sequence (Q96SW2 whole entry): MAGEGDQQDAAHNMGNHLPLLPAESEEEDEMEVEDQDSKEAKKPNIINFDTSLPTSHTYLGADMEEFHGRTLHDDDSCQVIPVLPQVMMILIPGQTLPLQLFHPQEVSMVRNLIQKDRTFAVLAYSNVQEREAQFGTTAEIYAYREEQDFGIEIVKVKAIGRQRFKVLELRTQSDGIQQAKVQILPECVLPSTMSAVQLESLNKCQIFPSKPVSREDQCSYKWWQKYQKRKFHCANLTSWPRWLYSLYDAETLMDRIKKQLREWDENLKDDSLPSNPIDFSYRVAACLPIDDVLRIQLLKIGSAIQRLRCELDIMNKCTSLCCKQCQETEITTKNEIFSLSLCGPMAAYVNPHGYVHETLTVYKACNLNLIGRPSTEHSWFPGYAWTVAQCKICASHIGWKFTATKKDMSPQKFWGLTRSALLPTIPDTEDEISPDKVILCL
# GSPT1, sequence (Q16531 whole entry partner): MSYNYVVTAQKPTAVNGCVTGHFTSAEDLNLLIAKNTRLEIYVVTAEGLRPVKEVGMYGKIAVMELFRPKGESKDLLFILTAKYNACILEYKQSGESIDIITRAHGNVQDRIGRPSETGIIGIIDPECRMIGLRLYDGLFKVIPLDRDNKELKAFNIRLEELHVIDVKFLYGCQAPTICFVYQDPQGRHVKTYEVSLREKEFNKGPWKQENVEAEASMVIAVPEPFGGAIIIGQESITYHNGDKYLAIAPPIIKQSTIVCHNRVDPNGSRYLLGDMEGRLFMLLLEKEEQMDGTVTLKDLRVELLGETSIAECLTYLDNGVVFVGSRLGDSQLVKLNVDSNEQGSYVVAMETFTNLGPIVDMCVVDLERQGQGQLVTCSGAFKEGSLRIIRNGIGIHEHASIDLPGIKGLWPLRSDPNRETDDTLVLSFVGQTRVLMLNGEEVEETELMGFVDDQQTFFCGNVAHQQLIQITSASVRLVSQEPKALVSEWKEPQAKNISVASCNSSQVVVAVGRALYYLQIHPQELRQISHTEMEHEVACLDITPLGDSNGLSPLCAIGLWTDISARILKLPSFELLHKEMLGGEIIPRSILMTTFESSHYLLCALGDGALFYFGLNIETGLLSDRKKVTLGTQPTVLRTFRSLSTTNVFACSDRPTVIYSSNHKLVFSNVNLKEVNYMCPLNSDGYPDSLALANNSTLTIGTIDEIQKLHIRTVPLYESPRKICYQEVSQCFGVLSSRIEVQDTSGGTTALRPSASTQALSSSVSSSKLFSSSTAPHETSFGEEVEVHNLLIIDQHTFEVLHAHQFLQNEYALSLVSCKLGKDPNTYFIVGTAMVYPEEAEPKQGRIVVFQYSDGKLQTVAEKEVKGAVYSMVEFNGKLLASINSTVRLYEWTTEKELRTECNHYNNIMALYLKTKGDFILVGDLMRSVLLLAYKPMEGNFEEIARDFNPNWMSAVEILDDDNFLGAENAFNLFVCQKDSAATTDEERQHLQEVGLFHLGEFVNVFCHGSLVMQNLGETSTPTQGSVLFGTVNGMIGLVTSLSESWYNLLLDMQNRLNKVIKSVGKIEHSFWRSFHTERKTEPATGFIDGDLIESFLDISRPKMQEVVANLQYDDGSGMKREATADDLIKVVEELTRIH
structure (smiles),measurement,setting,value
Cc1ccc(NC(=O)NCc2ccc3c(c2)C(=O)N(C2CCC(=O)NC2=O)C3)cc1Cl (stereo not shown) [Compound 8],GSPT1 levels in tumors,GSPT1,robust and dose-dependent degradation of GSPT1 levels in tumors
same,EC50,"[1]; Homo sapiens, HMEC, presence of high c-Myc expression, read-out: EC50 of induced cell death (viability normalized to DMSO)",640 nM
same,induction of cell death,[1]; absence of doxycycline-driven c-Myc expression,did not induce cell death
same,induction of cell death,[1]; after doxycycline was washed out to remove c-Myc expression,did not induce cell death
Cc1ccc(NC(=O)OCc2ccc3c(c2)C(=O)N(C2CCC(=O)NC2=O)C3)cc1Cl (stereo not shown) [Compound 210],tumor growth,[2]; 1 mg/kg once daily PO,tumor growth was suppressed for two weeks
same,tumor size,[2]; 3 mg/kg once daily PO,"tumor size decreased, became undetectable by day eight and remained so until the end of the study at day 21"
same,tumor size,"[2]; 6 mg/kg PO, five days on and nine days off","tumor size decreased, became undetectable by day eight and remained so until the end of the study at day 21"
same,body weight,[2]; oral administration (PO),no body weight loss observed
same,tumor growth,[2]; oral administration (PO),tumor growth inhibition
"O=C1CCC(N2Cc3ccc(COC(=O)Nc4cc(OC(F)(F)F)ccc4F)cc3C2=O)C(=O)N1 (stereo not shown) [Compound 345, (2-(2,6-dioxopiperidin-3-yl)-3-oxoisoindolin-5-yl)methyl(2-fluoro-5-(trifluoromethoxy)phenyl)carbamate]",tumor progression free probability,[3],significantly extended the probability that an animal remained tumor-free
